Measurements: US10494397B2, “Rebaudioside analogs” (PepsiCo, Inc., priority 2016, dated 2019)

Assays:
Tasters [1] = test: Sensory evaluation of test material as a sweetener (taster panel, scale of 1 to 10); type: in vivo, human; design: key: not observed or only minimally observed (−); highly observed (+++); conditions: for Sweet Intensity: averaged taster scores, scale 1 to 10 with Reb A 400 ppm = 5 and sucrose 6.5% = 10, noseclips, blinded; for Sweet Quality: based upon temporal profile (sweet onset, linger) and attributes such as syrupy, round, clean; for Bitterness: taster comments and scores converted into symbols
Text: Sample preparation protocol for testing material as a sweetener: Tasters wore noseclips and were blinded to the identity of the test material. Tasters sampled 400 ppm Rebaudioside A and 6.5 Brix sucrose prior to the test material. Reb A 400 ppm was assigned a 5 on the scale of 1 to 10 as shown in FIG. 8 and sucrose (6.5%) was assigned a 10 on the same scale. Tasters were asked to rinse their mouths 5 times with water between tasting each sample. Tasters were then given the test article and asked to rank the test article for sweetness on the noted scale. Tasters were also asked to provide comments about bitterness, linger, flavors, and any other perceptions.
Numerical scores from all tasters were averaged and, taken together with comments regarding sweet quality, bitterness and off-tastes, converted into the symbols “−,” “+,” “++,” and “+++” to indicate whether a given characteristic was not observed or only minimally observed (−) or highly observed (+++). For example, a sample having a “−” in both sweet intensity and bitterness should be understood as a sample having minimal or no sweetness and minimal or no bitter flavor. By contrast, a sample having a “+++” in both sweet intensity and bitterness should be understood as a sample having highly observed sweet intensity and bitterness.
Preparation of Reb A in this experiment: Prepare 400 ppm Reb A in water (pH=7): 40 mg of Rebaudioside A was dissolved with stirring in 100 ml of water at room temperature.
Preparation of Sucrose in this experiment: Prepare 6.5% Sucrose in water (pH=7): weight 6.5 gr of Sucrose and dissolve it in 93.5 gr water (total 100 gr)
• Sweet quality was based upon a temporal profile (sweet onset, linger) and attributes such as syrupy, round, clean.

Tasters [2] = test: Sweetness enhancement, Forced Choice Test; type: in vivo, human; design: key: not observed or only minimally observed (−); highly observed (+++); conditions: sweetener (4 Brix sucrose, 4 Brix HFCS or 200 ppm Rebaudioside A) with vs without test compound at a level below 1.5% SEV
Description: Sample preparation protocol: For testing the material as a sweet/flavor modifying ingredient, two samples were prepared: a 4° Brix high-fructose corn syrup (HFCS) control solution and a 4° Brix HFCS solution with a known concentration of test ingredient.
Sample Preparation: 4° Brix HFCS control solution was prepared by adding 50.89 grams of 78.60° Brix HFCS to 1000 g phosphoric acid base which was prepared by adding phosphoric acid dropwise into 1 L of Aquafina Water until pH 3.1 was obtained. pH was measured using a METTLER TOLEDO pH meter.
In the case of a different Brix of HFCS starting syrup, the following formula can be used for the amount of HFCS required to make HFCS control solution. 4° Brix/100*1000 mL/(78.5° Brix/100)=50.96
If any cloudiness persisted, the sample solution was passed through a paper filter. For some low soluble compounds, Branson 2800 Ultra Sonic Bath was used to dissolve the material. If any cloudiness persisted, the sample solution was passed through a paper filter. Solubility was confirmed by shining a laser pointer through the solution. If no diffraction was observed then it was assumed that the material was soluble
12-16 tasters were presented with these two(2) numbered samples: one contained a sweetener such as 4Brix sucrose, 4 Brix high-fructose corn syrup or 200 ppm Rebaudioside A in phosphate buffer. […]

| SMILES | Sweet Intensity (Tasters [1]) | Sweet Quality (Tasters [1]) | Bitterness (Tasters [1]) | Enhancement (Tasters [2]) |
| --- | --- | --- | --- | --- |
| C=C1C[C@@]23CC[C@H]4[C@@](C)(CCC[C@@]4(C)C(=O)NCC(=O)OC)[C@@H]2CC[C@]1(O[C@@H]1O[C@H](CO)[C@@H](O)[C@H](O[C@@H]2O[C@H](CO)[C@@H](O)[C@H](O)[C@H]2O)[C@H]1O[C@@H]1O[C@H](CO)[C@@H](O)[C@H](O)[C@H]1O)C3 [Compound 5A1, Rebaudioside B—Glycine Methyl ester] | − | − | +++ |  |
| C=C1C[C@@]23CC[C@H]4[C@@](C)(CCC[C@@]4(C)C(=O)O[C@@H]4OC[C@@H](O)[C@H](O)[C@H]4O)[C@@H]2CC[C@]1(O[C@@H]1O[C@H](CO)[C@@H](O)[C@H](O[C@@H]2O[C@H](CO)[C@@H](O)[C@H](O)[C@H]2O)[C@H]1O[C@@H]1O[C@H](CO)[C@@H](O)[C@H](O)[C@H]1O)C3 [Compound 7C, Rebaudioside B Xyloside] | +++ |  |  |  |
| C=C1C[C@@]23CC[C@H]4[C@@](C)(CCC[C@@]4(C)C(=O)O[C@@H]4O[C@H](CO)[C@H](O)[C@H](O)[C@H]4O)[C@@H]2CC[C@]1(O[C@@H]1O[C@H](CO)[C@@H](O)[C@H](O[C@@H]2O[C@H](CO)[C@@H](O)[C@H](O)[C@H]2O)[C@H]1O[C@@H]1O[C@@H](C)[C@H](O)[C@@H](O)[C@H]1O)C3 [Compound 7F, Rebaudioside C Galactoside] | − | − | − |  |
| C=C1C[C@@]23CC[C@H]4[C@@](C)(CCC[C@@]4(C)C(=O)N[C@@H](C(=O)O)C(C)C)[C@@H]2CC[C@]1(O[C@@H]1O[C@H](CO)[C@@H](O)[C@H](O[C@@H]2O[C@H](CO)[C@@H](O)[C@H](O)[C@H]2O)[C@H]1O[C@@H]1O[C@H](CO)[C@@H](O)[C@H](O)[C@H]1O)C3 [Compound 5D2] | +++ |  | − |  |
| C=C1C[C@@]23CC[C@H]4[C@@](C)(CCC[C@@]4(C)C(=O)N[C@H](Cc4ccccc4)C(=O)O)[C@@H]2CC[C@]1(O[C@@H]1O[C@H](CO)[C@@H](O)[C@H](O[C@@H]2O[C@H](CO)[C@@H](O)[C@H](O)[C@H]2O)[C@H]1O[C@@H]1O[C@H](CO)[C@@H](O)[C@H](O)[C@H]1O)C3 [Compound 5E2] |  |  | − |  |
| C=C1C[C@@]23CC[C@H]4[C@@](C)(CCC[C@@]4(C)C(=O)O[C@@H]4O[C@H](CO)[C@@H](O)[C@H](O)[C@H]4O)[C@@H]2CC[C@]1(O[C@@H]1O[C@H](CO)[C@@H](O)[C@H](O[C@@H]2O[C@H](CO)[C@@H](O)[C@H](O)[C@H]2O)[C@H]1O[C@@H]1O[C@H](CO)[C@@H](O)[C@H](O)[C@H]1O)C3 [Rebaudioside A] | +++ |  |  |  |
| C=C1C[C@@]23CC[C@H]4[C@@](C)(CCC[C@@]4(C)C(=O)O[C@@H]4OC[C@@H](O)[C@H](O)[C@H]4O)[C@@H]2CC[C@]1(O[C@@H]1O[C@H](CO)[C@@H](O)[C@H](O[C@@H]2O[C@H](CO)[C@@H](O)[C@H](O)[C@H]2O)[C@H]1O[C@@H]1O[C@@H](C)[C@H](O)[C@@H](O)[C@H]1O)C3 [Compound 7E, Rebaudioside C Xyloside] | − | − | − |  |
| C=C1C[C@@]23CC[C@H]4[C@@](C)(CCC[C@@]4(C)C(=O)N[C@H](C)C(=O)OC)[C@@H]2CC[C@]1(O[C@@H]1O[C@H](CO)[C@@H](O)[C@H](O[C@@H]2O[C@H](CO)[C@@H](O)[C@H](O)[C@H]2O)[C@H]1O[C@@H]1O[C@H](CO)[C@@H](O)[C@H](O)[C@H]1O)C3 [Compound 5C1, Rebaudioside B- D-Alanine Methyl ester] |  | − |  |  |
| C=C1C[C@@]23CC[C@H]4[C@@](C)(CCC[C@@]4(C)C(=O)N[C@@H](C)C(=O)OC)[C@@H]2CC[C@]1(O[C@@H]1O[C@H](CO)[C@@H](O)[C@H](O[C@@H]2O[C@H](CO)[C@@H](O)[C@H](O)[C@H]2O)[C@H]1O[C@@H]1O[C@H](CO)[C@@H](O)[C@H](O)[C@H]1O)C3 [Compound 5B1, Rebaudioside B- L-Alanine Methyl ester] |  | − | +++ |  |
| C=C1C[C@@]23CC[C@H]4[C@@](C)(CCC[C@@]4(C)C(=O)N[C@@H](C(=O)OC)C(C)C)[C@@H]2CC[C@]1(O[C@@H]1O[C@H](CO)[C@@H](O)[C@H](O[C@@H]2O[C@H](CO)[C@@H](O)[C@H](O)[C@H]2O)[C@H]1O[C@@H]1O[C@H](CO)[C@@H](O)[C@H](O)[C@H]1O)C3 [Compound 5D1, Rebaudioside B- D-Valine Methyl ester] | − | − | +++ |  |
| C=C1C[C@@]23CC[C@H]4[C@@](C)(CCC[C@@]4(C)C(=O)O[C@@H]4O[C@H](CO)[C@@H](O)[C@H](O)[C@H]4O[C@@H]4O[C@H](CO)[C@@H](O)[C@H](O)[C@H]4O)[C@@H]2CC[C@]1(O[C@@H]1O[C@H](CO)[C@@H](O)[C@H](O[C@@H]2O[C@H](CO)[C@@H](O)[C@H](O)[C@H]2O)[C@H]1O[C@@H]1O[C@@H](C)[C@H](O)[C@@H](O)[C@H]1O)C3 [Compound 7G, Rebaudioside K] | − | − | − | − |
| OC[C@H]1O[C@@](CO)(O[C@H]2O[C@H](CO)[C@@H](O)[C@H](O)[C@H]2O)[C@@H](O)[C@@H]1O [Sucrose, reference compound] |  | +++ | − |  |
| C=C1C[C@@]23CC[C@H]4[C@@](C)(CCC[C@@]4(C)C(=O)NCC(=O)O)[C@@H]2CC[C@]1(O[C@@H]1O[C@H](CO)[C@@H](O)[C@H](O[C@@H]2O[C@H](CO)[C@@H](O)[C@H](O)[C@H]2O)[C@H]1O[C@@H]1O[C@H](CO)[C@@H](O)[C@H](O)[C@H]1O)C3 [Compound 5A2, Rebaudioside B-Glycine] | +++ |  |  | +++ |
| C=C1C[C@@]23CC[C@H]4[C@@](C)(CCC[C@@]4(C)C(=O)O[C@@H]4O[C@H](CO)[C@@H](O)[C@H](O)[C@@H]4O)[C@@H]2CC[C@]1(O[C@@H]1O[C@H](CO)[C@@H](O)[C@H](O[C@@H]2O[C@H](CO)[C@@H](O)[C@H](O)[C@H]2O)[C@H]1O[C@@H]1O[C@H](CO)[C@@H](O)[C@H](O)[C@H]1O)C3 [Compound 7A, Rebaudioside B Mannoside] | +++ |  |  |  |
| C=C1C[C@@]23CC[C@H]4[C@@](C)(CCC[C@@]4(C)C(=O)N[C@H](Cc4ccccc4)C(=O)OC)[C@@H]2CC[C@]1(O[C@@H]1O[C@H](CO)[C@@H](O)[C@H](O[C@@H]2O[C@H](CO)[C@@H](O)[C@H](O)[C@H]2O)[C@H]1O[C@@H]1O[C@H](CO)[C@@H](O)[C@H](O)[C@H]1O)C3 [Compound 5E1, Rebaudioside B- D-Phenylalanine Methyl ester] | − | − | +++ |  |
